Data from ChEMBL document CHEMBL1201862, “PubChem BioAssay data set” (2004).
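1) Cells in 96-well plates. 2) Compound, 48 h, 5 concentrations. 3) Linear interpolation between surrounding doses. 4) Unreached endpoint = highest concentration. The concentration for 50% growth inhibition is given as GI50.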 The source made the active and inactive calls. Rule as the data show it: active = GI50 up to about 1.1 µM and inactive = higher.

Legend:
Assay in all cases: inhibition of tumour cell growth, NCI panel, 48 h
MDA-MB-435 = system: MDA-MB-435
ACHN = system: ACHN
IGROV-1 = system: IGROV-1
CCRF-CEM = system: CCRF-CEM
SK-MEL-5 = system: SK-MEL-5
A498 = system: A498
PC-3 = system: PC-3
HCT-116 = system: HCT-116
NCI-H460 = system: NCI-H460
A549 = system: A549
HCT-15 = system: HCT-15
RXF 393 = system: RXF 393
K562 = system: K562
Hs-578T = system: Hs-578T
MOLT-4 = system: MOLT-4
UACC-62 = system: UACC-62
OVCAR-3 = system: OVCAR-3
OVCAR-4 = system: OVCAR-4
SR = system: SR
HL-60 = system: HL-60

Compound | GI50 (MDA-MB-435) | GI50 (ACHN) | GI50 (IGROV-1) | GI50 (CCRF-CEM) | GI50 (SK-MEL-5) | GI50 (A498) | GI50 (PC-3) | GI50 (HCT-116) | GI50 (NCI-H460) | GI50 (A549) | GI50 (HCT-15) [µM] | GI50 (RXF 393) | GI50 (K562) | GI50 (Hs-578T) | GI50 (MOLT-4) | GI50 (UACC-62) | GI50 (OVCAR-3) | GI50 (OVCAR-4) | GI50 (SR) | GI50 (HL-60)
CN(C)CCCNc1ncnc2[nH]cnc12 | > 100 µM (inactive) | > 100 µM (inactive) | > 100 µM (inactive) | > 100 µM (inactive) | > 100 µM (inactive) | > 100 µM (inactive) | > 100 µM (inactive) | > 100 µM (inactive) | > 100 µM (inactive) | > 100 µM (inactive) | > 100 | > 100 µM (inactive) | > 100 µM (inactive) | > 100 µM (inactive) | > 100 µM (inactive) | > 100 µM (inactive) | > 100 µM (inactive) | > 100 µM (inactive) |  | 
O/N=C1\C(=C\c2ccc3c(c2)OCCO3)CCCC1C(NO)c1ccc2c(c1)OCCO2 (configuration not stated) |  | 34.5 µM (inactive) | 36.1 µM (inactive) | 16.6 µM (inactive) | 16.4 µM (inactive) | 16 µM (inactive) |  | 18.7 µM (inactive) | 20.5 µM (inactive) | 25.2 µM (inactive) | 22.5 | 25.8 µM (inactive) |  |  | 10.1 µM (inactive) | 16.5 µM (inactive) | 18.3 µM (inactive) | 30.1 µM (inactive) | 14.3 µM (inactive) | 14.7 µM (inactive)
N#CC(C(=O)CCCC(=O)Nc1ccccc1[N+](=O)[O-])c1c(Cl)cccc1Cl (configuration not stated) |  | > 100 µM (inactive) | > 100 µM (inactive) | > 100 µM (inactive) | > 100 µM (inactive) | > 100 µM (inactive) |  | > 100 µM (inactive) | > 100 µM (inactive) | > 100 µM (inactive) | > 100 | > 100 µM (inactive) | > 100 µM (inactive) |  | > 100 µM (inactive) | > 100 µM (inactive) | > 100 µM (inactive) | > 100 µM (inactive) | > 100 µM (inactive) | 99.1 µM (inactive)
CC(CC(=O)Nc1ccc(NC(=O)CC(C)/N=N\C(N)=S)cc1)/N=N\C(N)=S (configuration not stated) |  | > 100 µM (inactive) | > 100 µM (inactive) | > 100 µM (inactive) | > 100 µM (inactive) | > 100 µM (inactive) |  | > 100 µM (inactive) | > 100 µM (inactive) | > 100 µM (inactive) | 85.9 | > 100 µM (inactive) | > 100 µM (inactive) |  | > 100 µM (inactive) | > 100 µM (inactive) | > 100 µM (inactive) | > 100 µM (inactive) | 48.9 µM (inactive) | > 100 µM (inactive)
Cc1c(OCCCOc2ccc3c(=O)cc(-c4ccccc4)oc3c2C)ccc2c(=O)cc(-c3ccccc3)oc12 |  |  | > 100 µM (inactive) | 68.7 µM (inactive) | > 100 µM (inactive) | > 100 µM (inactive) |  | > 100 µM (inactive) | > 100 µM (inactive) | > 100 µM (inactive) | > 100 | 74 µM (inactive) | 59.2 µM (inactive) |  | > 100 µM (inactive) | > 100 µM (inactive) | > 100 µM (inactive) |  | 44.2 µM (inactive) | 41.4 µM (inactive)
Cc1ccccc1C(=O)c1cc(O)ccc1O |  | > 100 µM (inactive) | 99.5 µM (inactive) | > 100 µM (inactive) | > 100 µM (inactive) | > 100 µM (inactive) |  | > 100 µM (inactive) | 85.9 µM (inactive) | > 100 µM (inactive) | 50.1 | > 100 µM (inactive) | 35 µM (inactive) |  | > 100 µM (inactive) | 65 µM (inactive) | > 100 µM (inactive) | > 100 µM (inactive) | 78 µM (inactive) | 31.8 µM (inactive)
CC1=Nc2c(O)nc(S)nc2NC(c2ccc(Cl)c(Cl)c2)C1 (configuration not stated) |  | > 65.2 µM (inactive) | 20.1 µM (inactive) | > 100 µM (inactive) | 23.6 µM (inactive) | 18.9 µM (inactive) |  | 15.8 µM (inactive) | 67.8 µM (inactive) | 21.1 µM (inactive) | 33.7 | 17.5 µM (inactive) | > 100 µM (inactive) |  | > 100 µM (inactive) | 29.8 µM (inactive) | 17.5 µM (inactive) | 25.5 µM (inactive) | > 100 µM (inactive) | > 100 µM (inactive)
O=C(C#Cc1ccccc1)N1c2ccccc2CC1c1c[nH]c2ccccc12 (configuration not stated) |  | 19.7 µM (inactive) | 3.73 µM (inactive) | 4.63 µM (inactive) | 14.4 µM (inactive) | 28.9 µM (inactive) |  | 13.4 µM (inactive) | 18.6 µM (inactive) | 18.6 µM (inactive) | 11.5 | 4.48 µM (inactive) | 10.7 µM (inactive) |  | 9.02 µM (inactive) | 7.82 µM (inactive) | 14.6 µM (inactive) | 26.3 µM (inactive) | 12.3 µM (inactive) | 14.7 µM (inactive)
O/N=C(\CC(O)(C(F)(F)F)C(F)(F)F)c1cccs1 | > 10 µM (inactive) | > 10 µM (inactive) | > 10 µM (inactive) | > 10 µM (inactive) | > 10 µM (inactive) | > 10 µM (inactive) | > 10 µM (inactive) | > 10 µM (inactive) | > 10 µM (inactive) | > 10 µM (inactive) | > 10 | > 10 µM (inactive) | > 10 µM (inactive) | > 10 µM (inactive) | > 10 µM (inactive) | > 10 µM (inactive) | > 10 µM (inactive) | > 10 µM (inactive) |  | > 10 µM (inactive)
COc1ccc2c3c([nH]c(=O)c2c1C(=O)O)-c1ccccc1CC3 |  | > 100 µM (inactive) | > 100 µM (inactive) | > 100 µM (inactive) | > 100 µM (inactive) | > 100 µM (inactive) |  | > 100 µM (inactive) | > 100 µM (inactive) | > 100 µM (inactive) | > 100 | > 100 µM (inactive) | > 100 µM (inactive) |  | > 100 µM (inactive) |  | > 100 µM (inactive) | > 100 µM (inactive) | > 100 µM (inactive) | > 100 µM (inactive)
COC(=O)C1=C(C(=O)OC)C(OO)(c2ccccc2)OC1=O (configuration not stated) | > 100 µM (inactive) | > 100 µM (inactive) | 35 µM (inactive) | 55.6 µM (inactive) | 50.2 µM (inactive) |  | 38.6 µM (inactive) | 61.7 µM (inactive) | 48.6 µM (inactive) | > 100 µM (inactive) | 40.6 | > 100 µM (inactive) | 52.7 µM (inactive) |  | > 100 µM (inactive) | 34.2 µM (inactive) | > 100 µM (inactive) | > 100 µM (inactive) | 38.5 µM (inactive) | > 100 µM (inactive)
OCC1CC2CC1C1(C2)OCCO1 (configuration not stated) |  | > 100 µM (inactive) | > 100 µM (inactive) | > 100 µM (inactive) | > 100 µM (inactive) | > 100 µM (inactive) |  | > 100 µM (inactive) | > 100 µM (inactive) | > 100 µM (inactive) |  | > 100 µM (inactive) | > 100 µM (inactive) |  | > 100 µM (inactive) | > 100 µM (inactive) | > 100 µM (inactive) | > 100 µM (inactive) | > 100 µM (inactive) | > 100 µM (inactive)
O=Cc1[nH]c2ccccc2c1Br |  | 26 µM (inactive) | 26.7 µM (inactive) | 37.4 µM (inactive) | 16.5 µM (inactive) | 16.8 µM (inactive) |  | 18.5 µM (inactive) |  | > 100 µM (inactive) |  | 25.4 µM (inactive) | 15 µM (inactive) |  | 22.5 µM (inactive) | 16.9 µM (inactive) | 21.8 µM (inactive) | 31.3 µM (inactive) | 21.7 µM (inactive) | 13.8 µM (inactive)
CCOC(=O)CCCN | > 100 µM (inactive) | > 100 µM (inactive) | > 100 µM (inactive) | > 100 µM (inactive) | > 100 µM (inactive) | > 100 µM (inactive) | > 100 µM (inactive) | > 100 µM (inactive) | > 100 µM (inactive) | > 100 µM (inactive) | > 100 | > 100 µM (inactive) | > 100 µM (inactive) | > 100 µM (inactive) | > 100 µM (inactive) |  | > 100 µM (inactive) | > 100 µM (inactive) |  | > 100 µM (inactive)
COC1CC(O[C@H]2CC[C@@]3(C)C(=CCC4(O)C3CCC35C(=O)OC6(C)O[C@@]43CCC65)C2)OC(C)C1O (some centres not stated) |  | > 100 µM (inactive) | > 100 µM (inactive) | > 100 µM (inactive) | > 100 µM (inactive) | > 100 µM (inactive) |  | > 100 µM (inactive) | > 100 µM (inactive) | > 100 µM (inactive) | > 100 | > 100 µM (inactive) | > 100 µM (inactive) |  | > 100 µM (inactive) | > 100 µM (inactive) |  | > 100 µM (inactive) | > 100 µM (inactive) | > 100 µM (inactive)
C1CSC(=[N+]2CC[N+](=C3SCCS3)CC2)S1 |  | > 100 µM (inactive) | > 100 µM (inactive) | 36.6 µM (inactive) | > 100 µM (inactive) | > 100 µM (inactive) |  | > 100 µM (inactive) | > 100 µM (inactive) | > 100 µM (inactive) | > 100 | > 100 µM (inactive) | > 100 µM (inactive) |  | 44.9 µM (inactive) | > 100 µM (inactive) | > 100 µM (inactive) | > 100 µM (inactive) | 83.8 µM (inactive) | > 100 µM (inactive)
Cc1ccc2c(O)cc(-c3ccc4ccccc4c3)nc2n1 |  | 4.72 µM (inactive) | 2.6 µM (inactive) | 3.66 µM (inactive) |  | 3.4 µM (inactive) |  |  |  | 7.89 µM (inactive) | 3.54 |  | 3.41 µM (inactive) | 3.1 µM (inactive) | 4.45 µM (inactive) | 3.64 µM (inactive) |  | 6.25 µM (inactive) | 1.83 µM (inactive) | 1.82 µM (inactive)
